Measured values from the OligoGym collection.
Oligonucleotides are written 5' to 3', each unit as a sugar letter and its base; * is a phosphorothioate linkage, no mark a phosphodiester; rarer units and linkages stand in square brackets, end groups in braces. Plain capitals give the bases only. Oligonucleotides are given in HELM: sugar(base)linkage, 5' to 3'; d 2'-deoxyribose, r ribose, m 2'-O-methylribose, p phosphate. ss, as = sense and antisense strand; d = 2'-deoxy (DNA); r = 2'-OH (RNA)
Further: test concentration or dose not given here.

What follows are substances tested against UBE2J1 (assay: reporter assay of Huesken 2005). Details: siRNA.
“sense rGrUrUrGrCrCrUrUrUrArArArArUrCrUrGrGrAdTdT / antisense rUrCrCrArGrArUrUrUrUrArArArGrGrCrArArCdAdG” showed a normalised inhibition (eCFP-eYFP dual reporter) of 55.2%.
For “sense rGrUrUrUrGrArGrCrArUrCrUrCrArGrGrCrCrAdTdT / antisense rUrGrGrCrCrUrGrArGrArUrGrCrUrCrArArArCdAdG”, the normalised inhibition (eCFP-eYFP dual reporter) was 72.6%.
“sense rUrArArCrGrGrCrUrArArUrGrGrUrCrGrArUrUdTdT / antisense rArArUrCrGrArCrCrArUrUrArGrCrCrGrUrUrAdGdG” was tested, and the normalised inhibition (eCFP-eYFP dual reporter) was 84%.
For “sense rUrArArUrGrGrUrCrGrArUrUrUrGrArArGrUrGdTdT / antisense rCrArCrUrUrCrArArArUrCrGrArCrCrArUrUrAdGdC”, the normalised inhibition (eCFP-eYFP dual reporter) was 46.3%.
Work on “sense rUrArUrCrUrGrGrCrArArArCrGrArArUrArCrAdTdT / antisense rUrGrUrArUrUrCrGrUrUrUrGrCrCrArGrArUrAdTdA” yielded a normalised inhibition (eCFP-eYFP dual reporter) of 91.6%.
For “sense rUrCrArUrCrArArCrCrUrArCrCrCrArArCrCrUdTdT / antisense rArGrGrUrUrGrGrGrUrArGrGrUrUrGrArUrGrAdAdA”, the normalised inhibition (eCFP-eYFP dual reporter) was 47.9%.
“sense rUrCrUrGrUrUrUrGrArGrCrArUrCrUrCrArGrGdTdT / antisense rCrCrUrGrArGrArUrGrCrUrCrArArArCrArGrAdTdT” showed a normalised inhibition (eCFP-eYFP dual reporter) of 56%.
In the case of “sense rUrGrCrCrArArCrArArArArGrGrArGrArGrGrGdTdT / antisense rCrCrCrUrCrUrCrCrUrUrUrUrGrUrUrGrGrCrAdTdA”, the normalised inhibition (eCFP-eYFP dual reporter) was 28.7%.
With “sense rUrGrGrCrArArArCrGrArArUrArCrArUrArUrUdTdT / antisense rArArUrArUrGrUrArUrUrCrGrUrUrUrGrCrCrAdGdA” the normalised inhibition (eCFP-eYFP dual reporter) was 110%.
Work on “sense rUrGrGrUrGrGrGrUrCrArGrCrUrGrUrArCrUrGdTdT / antisense rCrArGrUrArCrArGrCrUrGrArCrCrCrArCrCrAdTdG” yielded a normalised inhibition (eCFP-eYFP dual reporter) of 83.4%.
“sense rUrGrUrCrUrArCrUrUrCrArCrCrArGrArUrGrUdTdT / antisense rArCrArUrCrUrGrGrUrGrArArGrUrArGrArCrAdAdC” gave a normalised inhibition (eCFP-eYFP dual reporter) of 73.1%.
Work on “sense rUrUrCrArCrUrArArCrUrGrArUrUrUrArCrArAdTdT / antisense rUrUrGrUrArArArUrCrArGrUrUrArGrUrGrArAdAdA” yielded a normalised inhibition (eCFP-eYFP dual reporter) of 67.5%.
Substance “sense rUrUrCrCrArGrGrGrUrGrCrUrArCrGrGrCrCrAdTdT / antisense rUrGrGrCrCrGrUrArGrCrArCrCrCrUrGrGrArAdTdG” has a normalised inhibition (eCFP-eYFP dual reporter) of 75.1%.
“sense rUrUrGrCrCrUrUrUrArArArArUrCrUrGrGrArAdTdT / antisense rUrUrCrCrArGrArUrUrUrUrArArArGrGrCrArAdCdA” gave a normalised inhibition (eCFP-eYFP dual reporter) of 70.5%.
“sense rUrUrUrArUrCrArCrGrGrGrCrGrGrArUrArGrUdTdT / antisense rArCrUrArUrCrCrGrCrCrCrGrUrGrArUrArArAdCdT” gave a normalised inhibition (eCFP-eYFP dual reporter) of 51.8%.

Each substance was assayed against Cacnb1 (rat) (assay: reporter assay of Huesken 2005). Details: siRNA.
Work on “RNA1{r(A)p.r(A)p.r(C)p.r(C)p.r(A)p.r(A)p.r(U)p.r(U)p.r(G)p.r(G)p.r(A)p.r(A)p.r(G)p.r(A)p.r(U)p.r(G)p.r(C)p.r(C)p.r(U)p.d(T)p.d(T)}|RNA2{r(A)p.r(G)p.r(G)p.r(C)p.r(A)p.r(U)p.r(C)p.r(U)p.r(U)p.r(C)p.r(C)p.r(A)p.r(A)p.r(U)p.r(U)p.r(G)p.r(G)p.r(U)p.r(U)p.d(C)p.d(T)}$$$RNA1{StrandType:ss}|RNA2{StrandType:as}$” yielded a normalised inhibition (eCFP-eYFP dual reporter) of 50%.
“RNA1{r(A)p.r(A)p.r(C)p.r(C)p.r(G)p.r(C)p.r(C)p.r(U)p.r(C)p.r(A)p.r(G)p.r(C)p.r(U)p.r(C)p.r(C)p.r(A)p.r(G)p.r(C)p.r(A)p.d(T)p.d(T)}|RNA2{r(U)p.r(G)p.r(C)p.r(U)p.r(G)p.r(G)p.r(A)p.r(G)p.r(C)p.r(U)p.r(G)p.r(A)p.r(G)p.r(G)p.r(C)p.r(G)p.r(G)p.r(U)p.r(U)p.d(T)p.d(T)}$$$RNA1{StrandType:ss}|RNA2{StrandType:as}$” gave a normalised inhibition (eCFP-eYFP dual reporter) of 46.2%.
“RNA1{r(A)p.r(A)p.r(G)p.r(A)p.r(A)p.r(U)p.r(G)p.r(A)p.r(G)p.r(C)p.r(U)p.r(G)p.r(G)p.r(A)p.r(G)p.r(G)p.r(G)p.r(C)p.r(U)p.d(T)p.d(T)}|RNA2{r(A)p.r(G)p.r(C)p.r(C)p.r(C)p.r(U)p.r(C)p.r(C)p.r(A)p.r(G)p.r(C)p.r(U)p.r(C)p.r(A)p.r(U)p.r(U)p.r(C)p.r(U)p.r(U)p.d(A)p.d(T)}$$$RNA1{StrandType:ss}|RNA2{StrandType:as}$” gave a normalised inhibition (eCFP-eYFP dual reporter) of 54.2%.
With “RNA1{r(A)p.r(A)p.r(G)p.r(G)p.r(G)p.r(C)p.r(G)p.r(G)p.r(U)p.r(U)p.r(C)p.r(A)p.r(A)p.r(A)p.r(A)p.r(G)p.r(G)p.r(U)p.r(C)p.d(T)p.d(T)}|RNA2{r(G)p.r(A)p.r(C)p.r(C)p.r(U)p.r(U)p.r(U)p.r(U)p.r(G)p.r(A)p.r(A)p.r(C)p.r(C)p.r(G)p.r(C)p.r(C)p.r(C)p.r(U)p.r(U)p.d(T)p.d(C)}$$$RNA1{StrandType:ss}|RNA2{StrandType:as}$” the normalised inhibition (eCFP-eYFP dual reporter) was 57.7%.
In the case of “RNA1{r(A)p.r(A)p.r(U)p.r(G)p.r(U)p.r(U)p.r(G)p.r(G)p.r(C)p.r(U)p.r(A)p.r(C)p.r(A)p.r(A)p.r(U)p.r(C)p.r(C)p.r(G)p.r(U)p.d(T)p.d(T)}|RNA2{r(A)p.r(C)p.r(G)p.r(G)p.r(A)p.r(U)p.r(U)p.r(G)p.r(U)p.r(A)p.r(G)p.r(C)p.r(C)p.r(A)p.r(A)p.r(C)p.r(A)p.r(U)p.r(U)p.d(T)p.d(G)}$$$RNA1{StrandType:ss}|RNA2{StrandType:as}$”, the normalised inhibition (eCFP-eYFP dual reporter) was 90.9%.
In the case of “RNA1{r(A)p.r(C)p.r(A)p.r(C)p.r(G)p.r(G)p.r(A)p.r(G)p.r(C)p.r(C)p.r(A)p.r(G)p.r(G)p.r(A)p.r(G)p.r(A)p.r(C)p.r(U)p.r(C)p.d(T)p.d(T)}|RNA2{r(G)p.r(A)p.r(G)p.r(U)p.r(C)p.r(U)p.r(C)p.r(C)p.r(U)p.r(G)p.r(G)p.r(C)p.r(U)p.r(C)p.r(C)p.r(G)p.r(U)p.r(G)p.r(U)p.d(A)p.d(G)}$$$RNA1{StrandType:ss}|RNA2{StrandType:as}$”, the normalised inhibition (eCFP-eYFP dual reporter) was 48.8%.
With “RNA1{r(A)p.r(C)p.r(C)p.r(C)p.r(C)p.r(A)p.r(G)p.r(C)p.r(A)p.r(A)p.r(A)p.r(C)p.r(A)p.r(C)p.r(A)p.r(U)p.r(U)p.r(A)p.r(U)p.d(T)p.d(T)}|RNA2{r(A)p.r(U)p.r(A)p.r(A)p.r(U)p.r(G)p.r(U)p.r(G)p.r(U)p.r(U)p.r(U)p.r(G)p.r(C)p.r(U)p.r(G)p.r(G)p.r(G)p.r(G)p.r(U)p.d(T)p.d(G)}$$$RNA1{StrandType:ss}|RNA2{StrandType:as}$” the normalised inhibition (eCFP-eYFP dual reporter) was 63.4%.
In the case of “RNA1{r(A)p.r(G)p.r(A)p.r(A)p.r(U)p.r(G)p.r(A)p.r(G)p.r(C)p.r(U)p.r(G)p.r(G)p.r(A)p.r(G)p.r(G)p.r(G)p.r(C)p.r(U)p.r(G)p.d(T)p.d(T)}|RNA2{r(C)p.r(A)p.r(G)p.r(C)p.r(C)p.r(C)p.r(U)p.r(C)p.r(C)p.r(A)p.r(G)p.r(C)p.r(U)p.r(C)p.r(A)p.r(U)p.r(U)p.r(C)p.r(U)p.d(T)p.d(A)}$$$RNA1{StrandType:ss}|RNA2{StrandType:as}$”, the normalised inhibition (eCFP-eYFP dual reporter) was 75.3%.
Substance “RNA1{r(A)p.r(G)p.r(C)p.r(A)p.r(A)p.r(C)p.r(C)p.r(A)p.r(C)p.r(C)p.r(C)p.r(A)p.r(C)p.r(C)p.r(U)p.r(G)p.r(G)p.r(C)p.r(C)p.d(T)p.d(T)}|RNA2{r(G)p.r(G)p.r(C)p.r(C)p.r(A)p.r(G)p.r(G)p.r(U)p.r(G)p.r(G)p.r(G)p.r(U)p.r(G)p.r(G)p.r(U)p.r(U)p.r(G)p.r(C)p.r(U)p.d(G)p.d(G)}$$$RNA1{StrandType:ss}|RNA2{StrandType:as}$” has a normalised inhibition (eCFP-eYFP dual reporter) of 31.6%.
With “RNA1{r(A)p.r(G)p.r(C)p.r(C)p.r(G)p.r(G)p.r(C)p.r(C)p.r(G)p.r(U)p.r(C)p.r(A)p.r(G)p.r(A)p.r(C)p.r(U)p.r(C)p.r(C)p.r(G)p.d(T)p.d(T)}|RNA2{r(C)p.r(G)p.r(G)p.r(A)p.r(G)p.r(U)p.r(C)p.r(U)p.r(G)p.r(A)p.r(C)p.r(G)p.r(G)p.r(C)p.r(C)p.r(G)p.r(G)p.r(C)p.r(U)p.d(C)p.d(G)}$$$RNA1{StrandType:ss}|RNA2{StrandType:as}$” the normalised inhibition (eCFP-eYFP dual reporter) was 44.2%.
In the case of “RNA1{r(A)p.r(G)p.r(C)p.r(U)p.r(C)p.r(U)p.r(C)p.r(U)p.r(A)p.r(A)p.r(A)p.r(A)p.r(C)p.r(C)p.r(U)p.r(C)p.r(G)p.r(C)p.r(U)p.d(T)p.d(T)}|RNA2{r(A)p.r(G)p.r(C)p.r(G)p.r(A)p.r(G)p.r(G)p.r(U)p.r(U)p.r(U)p.r(U)p.r(A)p.r(G)p.r(A)p.r(G)p.r(A)p.r(G)p.r(C)p.r(U)p.d(G)p.d(G)}$$$RNA1{StrandType:ss}|RNA2{StrandType:as}$”, the normalised inhibition (eCFP-eYFP dual reporter) was 56.1%.
“RNA1{r(C)p.r(A)p.r(G)p.r(G)p.r(A)p.r(G)p.r(A)p.r(U)p.r(G)p.r(A)p.r(G)p.r(G)p.r(U)p.r(G)p.r(C)p.r(C)p.r(A)p.r(G)p.r(U)p.d(T)p.d(T)}|RNA2{r(A)p.r(C)p.r(U)p.r(G)p.r(G)p.r(C)p.r(A)p.r(C)p.r(C)p.r(U)p.r(C)p.r(A)p.r(U)p.r(C)p.r(U)p.r(C)p.r(C)p.r(U)p.r(G)p.d(G)p.d(A)}$$$RNA1{StrandType:ss}|RNA2{StrandType:as}$” gave a normalised inhibition (eCFP-eYFP dual reporter) of 83.4%.
“RNA1{r(C)p.r(C)p.r(A)p.r(A)p.r(G)p.r(G)p.r(A)p.r(C)p.r(U)p.r(U)p.r(C)p.r(C)p.r(U)p.r(G)p.r(C)p.r(A)p.r(C)p.r(A)p.r(U)p.d(T)p.d(T)}|RNA2{r(A)p.r(U)p.r(G)p.r(U)p.r(G)p.r(C)p.r(A)p.r(G)p.r(G)p.r(A)p.r(A)p.r(G)p.r(U)p.r(C)p.r(C)p.r(U)p.r(U)p.r(G)p.r(G)p.d(G)p.d(C)}$$$RNA1{StrandType:ss}|RNA2{StrandType:as}$” showed a normalised inhibition (eCFP-eYFP dual reporter) of 63.2%.
Substance “RNA1{r(C)p.r(C)p.r(A)p.r(C)p.r(C)p.r(C)p.r(A)p.r(A)p.r(U)p.r(C)p.r(C)p.r(G)p.r(C)p.r(U)p.r(G)p.r(C)p.r(U)p.r(G)p.r(A)p.d(T)p.d(T)}|RNA2{r(U)p.r(C)p.r(A)p.r(G)p.r(C)p.r(A)p.r(G)p.r(C)p.r(G)p.r(G)p.r(A)p.r(U)p.r(U)p.r(G)p.r(G)p.r(G)p.r(U)p.r(G)p.r(G)p.d(C)p.d(G)}$$$RNA1{StrandType:ss}|RNA2{StrandType:as}$” has a normalised inhibition (eCFP-eYFP dual reporter) of 81.5%.
